The values that follow come from patent US11427610B2, “Cyclic dinucleotides as anticancer agents” (BRISTOL-MYERS SQUIBB COMPANY, priority 2017, dated 2022).

In the first assay the target is T1, STING WT: His-TVMV-S-hSTING(155-341)-H232R (Homo sapiens, UniProt Q86WV6, H232R).
T1 construct: His-TVMV-S-hSTING(155-341)-H232R
T1 sequence (Q86WV6 with tags, fused parts or gaps H232R): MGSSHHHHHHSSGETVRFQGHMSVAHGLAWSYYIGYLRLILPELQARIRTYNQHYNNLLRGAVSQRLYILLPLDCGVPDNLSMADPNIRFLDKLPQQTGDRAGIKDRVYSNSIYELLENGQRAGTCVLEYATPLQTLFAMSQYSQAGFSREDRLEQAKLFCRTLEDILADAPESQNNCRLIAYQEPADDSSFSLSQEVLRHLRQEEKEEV
The assay can be described thus: STING HTRF binding assay, STING WT. Conditions: 20 nM His-tagged STING cytoplasmic domain, 200 nM fluorescein-labeled cGAMP analog probe, one hour; read-out: HTRF Binding Assays IC50 (μM) STING WT. On the procedure: (§1) A time resolved FRET-based competition binding assay was used to assess test article binding to STING WT and STING AQ. His-tagged STING cytoplasmic domain (WT or AQ) at a concentration of 20 nM was incubated with 2.5 nM Tb-labeled anti-His antibody, test compound, and fluorescein-labeled cGAMP analog probe (BioLog cat. no. C195) at a concentration of 200 nM (STING WT) or 40 nM (STING AQ) in PBS containing 0.005% Tween-20 and 0.1% BSA for one hour. Fluorescence at 495 nm and 520 nm was measured using an EnVision microplate reader to quantify FRET between Tb-labeled anti-His antibody and fluorescein-labeled probe. Background was defined as the signal obtained in the absence of STING protein, and background subtracted FRET ratios were normalized to the maximum signal obtained in the absence of test compound. These values were converted to a percent inhibition. Percent inhibition was determined for test compounds at 11 concentrations. The IC50, defined as the concentration of competing test compound needed to reduce specific binding of the probe by 50%, was calculated using the 4 parameter logistic equation to fit the data
(TR-FRET usually uses a lanthanide donor and a delayed reading to cut background.)
A word on the IC50: it is the point on the concentration scale where inhibition reaches its midpoint. For `C#C[C@@H]1O[C@@H]2COP(O)(=S)O[C@H]3[C@@H](F)[C@H](n4cnc5c(N)ncnc54)O[C@@H]3COP(O)(=S)O[C@@H]1[C@@H]2O` (single isomer, unassigned) [Example 1-3], the IC50 was found to be 55.3 µM.

Take `Nc1ncnc2c1ncn2[C@@H]1O[C@@H]2COP(O)(=S)O[C@@H]3[C@H](O)[C@@H](COP(O)(=S)O[C@H]2[C@H]1F)O[C@H]3C#Cc1cccnc1` (single isomer, unassigned) [Example 3-3]: the half-inhibitory concentration (IC50) was 1.1 µM.

`Nc1ncnc2c1ncn2[C@@H]1O[C@@H]2COP(O)(=S)O[C@@H]3[C@H](O)[C@@H](COP(O)(=S)O[C@H]2[C@H]1F)O[C@H]3C#Cc1ccccc1` (single isomer, unassigned) [Example 2-3]: the IC50 is 20.5 µM.

Regarding `C#C[C@@H]1O[C@@H]2COP(=O)(S)O[C@H]3[C@@H](F)[C@H](n4cnc5c(N)ncnc54)O[C@@H]3COP(=O)(S)O[C@@H]1[C@@H]2O` (single isomer, unassigned) [Example 1-2], the IC50 was 1.7 µM.

As for `Nc1ncnc2c1ncn2[C@@H]1O[C@@H]2COP(O)(=S)O[C@@H]3[C@H](O)[C@@H](COP(O)(=S)O[C@H]2[C@H]1F)O[C@H]3C#Cc1cccnc1` (single isomer, unassigned) [Example 3-2], the IC50 turned out to be 3.4 µM.

On to `Nc1ncnc2c1ncn2[C@@H]1O[C@@H]2COP(O)(=S)O[C@@H]3[C@H](O)[C@@H](COP(O)(=S)O[C@H]2[C@H]1F)O[C@H]3C#Cc1ccccc1` (single isomer, unassigned) [Example 2-4], for which the IC50 was more than 100 µM.

In a further assay the test system is IRF3. The assay can be described thus: STING THP1 reporter assay, IRF pathway (Lucia luciferase). Format: cell-based. The note with it: Homo sapiens, THP-1, 20 h, THP1-Dual cells, 10% human plasma, 100% activation = 100 μM cGAMP, luciferase readout, read-out: THP1 Reporter Assays EC50 (μM) IRF3. From the text: (§2) THP1-Dual™ cells were derived from the human THP-1 monocyte cell line by stable integration of two inducible reporter constructs. To this end, THP1-Dual™ cells allow the simultaneous study of the NF-κB pathway, by monitoring the activity of SEAP, and the IRF pathway by assessing the activity of a secreted luciferase (Lucia). Both reporter proteins are readily measurable in the cell culture supernatant when using QUANTI-Blue™, a SEAP detection reagent, and QUANTI-Luc™, a luciferase detection reagent.
(§3) THP1-Dual™ cells induce the activation of NF-κB in response to STING agonists. They also trigger the IRF pathway upon stimulation with STING agonists, such as cGAMP. Here, the THP-1-Dual cells were used to assess STING binders for function on the cellular level.
(§4) Serial dilutions of compounds in DMSO were added to low volume 384 well plates at 100 nl/well using an ECHO acoustic dispenser (Labcyte, model 550) to achieve final starting concentration of 100 μM in cell suspension. THP-1 Dual™ STING reporter cells (Invivogen, Dual cells cat #THPD-nfis) were added to the plates with compounds at 15,000 cells in 10 μL per well in RPMI media (Gibco, cat #11875) containing 10% human plasma in a low volume 384-well black wall clear bottom tissue culture plate (Corning, cat #3542) for SEAP assay and low volume solid white plate (Corning, cat #3826) for luciferase assay. One column of the plate was reserved for treatment with cGAMP at 100 μM for 100% activation calculation and one column for no treatment (DMSO only) for baseline activation. Plates were then incubated in 37° C. incubator at 5% CO2 for 20 hours.
(§5) In the SEAP assay, 5 μl of 2× QuantiBlue (Invivogen, cat #Rep-qb2) is added to 384 well black plates seeded with THP1 cells and incubated at 37° C. for 2 hours. Plates were read on the Envision (Perkin Elmer) at 620 nm wavelength (OD620). In the luciferase assay, 5 μl of Quantiluc (Invivogen, Rep-qlc2) is added to white 384 well plates seeded with THP1 cells and read at 5 minutes on the Envision (Perkin Elmer) using a luminescence protocol (RLU). For both cell lines, 100% activation was determined by value (RLU) of THP-1 Dual STING cells stimulated with 100 μM cGAMP (Invivogen, cat #TLRL-NACGA23-5).
On the technique in general: A reporter such as luciferase makes a cellular process visible.
The term EC50 denotes the concentration giving half of the maximal effect. For `C#C[C@@H]1O[C@@H]2COP(O)(=S)O[C@H]3[C@@H](F)[C@H](n4cnc5c(N)ncnc54)O[C@@H]3COP(O)(=S)O[C@@H]1[C@@H]2O` (single isomer, unassigned) [Example 1-3], the EC50 was more than 100 µM.

In the case of `Nc1ncnc2c1ncn2[C@@H]1O[C@@H]2COP(O)(=S)O[C@@H]3[C@H](O)[C@@H](COP(O)(=S)O[C@H]2[C@H]1F)O[C@H]3C#Cc1ccccc1` (single isomer, unassigned) [Example 2-3], the EC50 is more than 100 µM.

Staying with this assay, now noted: THP1-Dual cells, 10% human plasma, 20 hours, 100% activation = 100 μM cGAMP, luciferase readout; read-out: THP1 Reporter Assays EC50 (μM) IRF3.
In the case of `Nc1ncnc2c1ncn2[C@@H]1O[C@@H]2COP(O)(=S)O[C@@H]3[C@H](O)[C@@H](COP(O)(=S)O[C@H]2[C@H]1F)O[C@H]3C#Cc1cccnc1` (single isomer, unassigned) [Example 3-3], the EC50 came out at 6 µM.

Turning to `C#C[C@@H]1O[C@@H]2COP(=O)(S)O[C@H]3[C@@H](F)[C@H](n4cnc5c(N)ncnc54)O[C@@H]3COP(=O)(S)O[C@@H]1[C@@H]2O` (single isomer, unassigned) [Example 1-2], the EC50 was 24 µM.

On to `Nc1ncnc2c1ncn2[C@@H]1O[C@@H]2COP(O)(=S)O[C@@H]3[C@H](O)[C@@H](COP(O)(=S)O[C@H]2[C@H]1F)O[C@H]3C#Cc1cccnc1` (single isomer, unassigned) [Example 3-2], for which the EC50 is more than 100 µM.

In the case of `Nc1ncnc2c1ncn2[C@@H]1O[C@@H]2COP(O)(=S)O[C@@H]3[C@H](O)[C@@H](COP(O)(=S)O[C@H]2[C@H]1F)O[C@H]3C#Cc1ccccc1` (single isomer, unassigned) [Example 2-4], the EC50 is more than 100 µM.

A further assay deals with NFkB. The assay can be described thus: STING THP1 reporter assay, NF-κB pathway (SEAP). Conditions: Homo sapiens, THP-1, 20 h, THP1-Dual cells, 10% human plasma, 100% activation = 100 μM cGAMP, SEAP readout, read-out: THP1 Reporter Assays EC50 (μM) NFkB. Type of assay: cell-based.
Excerpt: as §2, §3, §4, §5
In the case of `C#C[C@@H]1O[C@@H]2COP(O)(=S)O[C@H]3[C@@H](F)[C@H](n4cnc5c(N)ncnc54)O[C@@H]3COP(O)(=S)O[C@@H]1[C@@H]2O` (single isomer, unassigned) [Example 1-3], the EC50 was more than 100 µM.

As for `Nc1ncnc2c1ncn2[C@@H]1O[C@@H]2COP(O)(=S)O[C@@H]3[C@H](O)[C@@H](COP(O)(=S)O[C@H]2[C@H]1F)O[C@H]3C#Cc1ccccc1` (single isomer, unassigned) [Example 2-3], the EC50 is more than 100 µM.

Still in this assay, the particulars now being: THP1-Dual cells, 10% human plasma, 20 hours, 100% activation = 100 μM cGAMP, SEAP readout; read-out: THP1 Reporter Assays EC50 (μM) NFkB.
For the molecule `Nc1ncnc2c1ncn2[C@@H]1O[C@@H]2COP(O)(=S)O[C@@H]3[C@H](O)[C@@H](COP(O)(=S)O[C@H]2[C@H]1F)O[C@H]3C#Cc1cccnc1` (single isomer, unassigned) [Example 3-3], the EC50 was 8.1 µM.

For `C#C[C@@H]1O[C@@H]2COP(=O)(S)O[C@H]3[C@@H](F)[C@H](n4cnc5c(N)ncnc54)O[C@@H]3COP(=O)(S)O[C@@H]1[C@@H]2O` (single isomer, unassigned) [Example 1-2], the EC50 came to 42 µM.

As for `Nc1ncnc2c1ncn2[C@@H]1O[C@@H]2COP(O)(=S)O[C@@H]3[C@H](O)[C@@H](COP(O)(=S)O[C@H]2[C@H]1F)O[C@H]3C#Cc1cccnc1` (single isomer, unassigned) [Example 3-2], the EC50 is more than 100 µM.

Another assay deals with T2, STING AQ: His-TVMV-S-hSTING(155-341)-G230A-R293Q (Homo sapiens, UniProt Q86WV6, G230A/H232R/R293Q).
T2 construct: His-TVMV-S-hSTING(155-341)-G230A-R293Q
T2 sequence (Q86WV6 with tags, fused parts or gaps G230A/H232R/R293Q): as the sequence (Q86WV6 with tags, fused parts or gaps H232R) above, with G99A, R162Q counted along it
The assay can be described thus: STING HTRF binding assay, STING AQ. Conditions: 20 nM His-tagged STING cytoplasmic domain, 40 nM fluorescein-labeled cGAMP analog probe, one hour; read-out: HTRF Binding Assays IC50 (μM) STING AQ. On the procedure:
as §1
For `C#C[C@@H]1O[C@@H]2COP(O)(=S)O[C@H]3[C@@H](F)[C@H](n4cnc5c(N)ncnc54)O[C@@H]3COP(O)(=S)O[C@@H]1[C@@H]2O` (single isomer, unassigned) [Example 1-3], the IC50 amounted to 1.9 µM.

Consider `Nc1ncnc2c1ncn2[C@@H]1O[C@@H]2COP(O)(=S)O[C@@H]3[C@H](O)[C@@H](COP(O)(=S)O[C@H]2[C@H]1F)O[C@H]3C#Cc1cccnc1` (single isomer, unassigned) [Example 3-3], for which the IC50 came out at 0.04 µM.

For `Nc1ncnc2c1ncn2[C@@H]1O[C@@H]2COP(O)(=S)O[C@@H]3[C@H](O)[C@@H](COP(O)(=S)O[C@H]2[C@H]1F)O[C@H]3C#Cc1ccccc1` (single isomer, unassigned) [Example 2-3], the IC50 was 0.7 µM.

On to `C#C[C@@H]1O[C@@H]2COP(=O)(S)O[C@H]3[C@@H](F)[C@H](n4cnc5c(N)ncnc54)O[C@@H]3COP(=O)(S)O[C@@H]1[C@@H]2O` (single isomer, unassigned) [Example 1-2], for which the IC50 worked out at 0.03 µM.

In the case of `Nc1ncnc2c1ncn2[C@@H]1O[C@@H]2COP(O)(=S)O[C@@H]3[C@H](O)[C@@H](COP(O)(=S)O[C@H]2[C@H]1F)O[C@H]3C#Cc1cccnc1` (single isomer, unassigned) [Example 3-2], the IC50 came to 0.2 µM.

Take `Nc1ncnc2c1ncn2[C@@H]1O[C@@H]2COP(O)(=S)O[C@@H]3[C@H](O)[C@@H](COP(O)(=S)O[C@H]2[C@H]1F)O[C@H]3C#Cc1ccccc1` (single isomer, unassigned) [Example 2-4]: the IC50 stood at 17 µM.
